The values that follow come from US20060100168A1, “Method of treating cancer using adenosine and its analogs” (The Trustee of Boston University, priority 2002, published 2006).

Series [1] relates to estrogen receptor α (ERα). The experiment in a line: ERα protein level by Western blot in MCF-7 cells. Format: cell-based, human. How it is done:
Western Blot Analysis: Cells were washed three times in cold 1×PBS, and collected by scraping on ice. Western blot analysis was performed as we described before with the chemiluminescence method (41). […] Cyclin A, cyclin B1 and p27 antibodies were used at 1:500 dilutions. Cyclin E antibody was used at 1:1000 dilutions.
For orientation: A western blot detects proteins with antibodies after separation by electrophoresis.

Series [2] concerns HeLa cells. The experiment in a line: Anchorage-independent growth (soft agar) assay. It is filed as cell-based, human. The note with it: 100 μM, two weeks. How it is done: (§1) Anchorage-independent growth (soft agar) assay: Soft agar assay was performed as described (40) with the following modifications. Ligands were added into the bottom and top agar before plating into 6-well plates. Cells were treated with trypsin (Invitrogen, Carlsbad, Calif.) for 5 minutes in a 37° C. incubator and pipetted several times so that most cells were in single cell forms. Cells were counted with a hemacytometer (Hausser Scientific/VWR, So. Plainfield, N.J.), and 10,000 cells were mixed with top agar and plated into each well. After the top agar had solidified, two ml of medium containing the same treatment was added on top of the agar. This covering medium was changed every two days during culture. After two weeks of culture, each well was counted for the number of colonies formed on an Olympus IX70 microscope under 40× optical amplification. A cell colony was defined as any cluster of cells that contain more than 3 cells. The average of counts from 3 random optical fields for each well was taken as the colony number and analyzed. Each treatment was performed in triplicates. The averages and standard deviations shown in the figures were calculated based on triplicate experiments.

The test system of series [3] is Hs578T cells. The series is described as follows: Anchorage-independent growth (soft agar) assay. It is filed as cell-based, human. The note with it: 100 μM, two weeks. The procedure: as §1
Series [4] has as its system MCF-7 cells. The series is described as follows: Anchorage-independent growth (soft agar) assay. It is filed as cell-based, human. How it is done: as §1
Series [5] has as its system T47D cells. The experiment in a line: Anchorage-independent growth (soft agar) assay. It is filed as cell-based, human. As to conditions: 100 μM, two weeks. The procedure: as §1
The test system of series [6] is ZR-75 cells. The experiment in a line: Anchorage-independent growth (soft agar) assay. Format: cell-based, human. As to conditions: ZR-75 soft agar; 100 μM; two weeks. How it is done:
as §1

For series [7], the system named is cyclin levels in HeLa cells. The experiment in a line: Western blot of cyclins in HeLa cells. Format: cell-based, human. As to conditions: data not shown. How it is done:
Western Blot Analysis: Cells were washed three times in cold 1×PBS, and collected by scraping on ice. Western blot analysis was performed as we described before with the chemiluminescence method (41). Antibodies used in this study were: ERα (NeoMarkers, Ab-15), Cyclin A (Santa Cruz Biotech, H-432), Cyclin B1 (Santa Cruz Biotech, H-433), Cyclin E (Upstate Biotech, HE-12), p27 (Santa Cruz Biotech, F-8). ERα antibody was used at 1:100 dilutions. Cyclin A, cyclin B1 and p27 antibodies were used at 1:500 dilutions. Cyclin E antibody was used at 1:1000 dilutions.

For series [8], the system named is MCF-7+A3 cells (stably transfected with human A3AR cDNA). The series is described as follows: Soft agar assay with MCF-7 cells stably expressing A3 adenosine receptor. Format: cell-based. The note with it: MCF-7+A3 pool vs MCF-7. The procedure:
as §1, with “experiments. […] Clones of cells grown up were analyzed for their A3AR expression using RT-PCR.” for “experiments.”

For series [9], the system named is MCF-7 cells overexpressing ERα. The series is described as follows: Growth of MCF-7 cells transiently transfected with pcDNA3-ERα. It is filed as cell-based, human. The note with it: 100 μM; one day; transfection efficiency approximately 40%. How it is done:
Anchorage-dependent growth assay: Cells were plated into 6-well plates and grown overnight before treatments. The seeding concentration of MCF-7 cells was 2×10^5/well, which was determined during preliminary experiments as not allowing the cells to reach confluency within 3 days. Cells were treated either with vehicle or ligands, as indicated. Cells were detached by incubation with trypsin (Invitrogen, Carlsbad, Calif.) and counted with a hemacytometer before or after treatment. Transfections and Reporter Gene Assay: Transient transfection was performed using FuGene6 (Roche, Indianapolis, Ind.) transfection reagent according to manufacturer's protocol. Circular reporter plasmid pERE-Tk-Luc at 10 μg and 10 μg of pCMV-β-Gal (as a measure of efficiency of trasnfection) were transfected with 50 μl of FuGene6. Cells were split into 6 well plates 12 hours after transfection, and incubated overnight in fresh medium. […] Luciferase and β-galactosidase activities were measured as described before (43, 44).

The conditions of series [10]: in vivo application; Fishman et al. 2002; cited from earlier work.

Regarding `CNC(=O)[C@H]1O[C@@H](n2cnc3c(NCc4cccc(I)c4)ncnc32)[C@H](O)[C@@H]1O` [IB-MECA, N^6-(3-iodobenzyl)adenosine-5′-N-methyluronamide], in series [1] (12 hours, 100 μM, except adenosine (500 μM), Western blot quantitated, vehicle control set to 1, average of two experiments), the “ERα Level” value was 0.23. Besides, the “ERα protein level, in words” value in series [1] (Western blot) was “decreased”. For the same compound, the ERα protein degradation result in series [1] (protein synthesis inhibited by cycloheximide 50 μg/ml, 100 μM) is given as “did not notice any significant change in ERα protein degradation”. Moreover, the “Colony formation, in words” value is “mild response” in series [2], “dramatic decrease in colony formation” in series [3], “dramatic decrease in colony formation” in [5] and “dramatic decrease in colony formation” in series [6]. Further, the “Concentration at which the cell growth inhibitory effect is observed” value in series [4] (MCF-7) was “higher than 10 μM”. In addition, in series [4] (MCF-7 soft agar, different concentrations, two weeks), the “Effect on anchorage-independent growth (colony formation), in words” value is recorded as “dose-dependent inhibition”. In series [7], the Cyclin levels result was “no significant change”. Also, the “Dosage response of colony formation compared to normal MCF-7 cells” value in series [8] is reported as “almost identical dosage response”. Moreover, in series [9], the “Effect on growth of ERα-overexpressing cells” value was “moderate effect on growth”. Also, the “Effect on blood cell counts” value in series [10] is given as “no inhibitory effect”.
